This passage reports eNOS/nNOS results from publication PMC3103786 (Journal of medicinal chemistry, 2009).

For this experiment, the system named is nNOS. Briefly: In vitro NOS inhibition, hemoglobin capture assay. It counts as biochemical. The note with it: ratio of Ki values, eNOS over nNOS.

Take `Nc1cccc(CC2CNCC2NCCCO)n1` (racemic) [compound 4, (±)-3-{cis-4'-[(6“-aminopyridin-2”-yl)methyl]pyrrolidin-3'-ylamino}propan-1-ol]: the eNOS/nNOS amounted to 39.

Turning to `Cc1cc(N)nc(CC2CNCC2NCCNCc2ccc(Cl)cc2)c1` (racemic) [compound 6, (±)-N^1-{cis-4'-[(6“-amino-4”-methylpyridin-2“-yl)methyl]pyrrolidin-3'-yl}-N^2-(4'-chlorobenzyl)ethane-1,2-diamine], the eNOS/nNOS was found to be 1002.

Turning to `Cc1cc(N)nc(CC2CNCC2NCCNCc2cccc(Cl)c2)c1` (racemic) [compound 7, (±)-N^1-{trans-4'-[(6“-amino-4”-methylpyridin-2”-yl)methyl]pyrrolidin-3'-yl}-N^2-(3'-chlorobenzyl)ethane-1,2-diamine], the eNOS/nNOS is reported as 381.
